The values that follow are results of earlier work, collected in patent US20070020177A1, “Radiometal complex compositions” (priority 2003, published 2007).

On to ^99mTc-TRODAT-1, for which, under “Fan et al”, the “stable at room temperature” value was 24 h. In addition, the “radiochemical purity reached by kit” value (minimum of 10 μg tropane conjugate in the kit, autoclave heating 30 minutes, Choi et al) is “greater than 90%”.
